These results are taken from EP0062019A1, “New phenyl-perhydroazepines” (priority 1981, dated 1982).

The term EC50 denotes the midpoint of the concentration-response curve.

Test [1] concerns rabbit right ventricle papillary muscle. Kind of test: Positive inotropic effect (contractility) in isolated, electrically driven papillary muscle. The class given is cell-based. As to conditions: for EC50 / Emax: Oryctolagus cuniculus; for EC50: iv, papillary muscle driven at 1HZ, rabbits pretreated with reserpine (5 mg/kg i.v.), Krebs-buffer pH 7.4, 32°C, read-out: Tmax EC50; for Emax: maximal effect compared with maximal effect of isoprenaline (intrinsic activity), rabbits pretreated with reserpine, read-out: Tmax ISA. As for the experimental part: (§1) Pharmacological studies on cardiac effects on heart frequency and contractility in isolated right atria and papillary muscle from rabbit.
(§2) Rabbits with an average weight of 2.5 kg, pretreated with reserpine (5 mg/kg i.v.) about 16 hours before the experiment were used. The rabbits were killed by a blow and the hearts were rapidly removed. The right atria and a papillary muscle from the right ventricle were isolated and set up to contract isometrically in an organ bath. The bath contained 50 ml Krebs-buffer (pH 7.4) and the temperature was kept at 32°C.
(§3) The contractions were measured by means of a force displacement transducer (Grass Model FT03) coupled to a.Grass Model 7 Polygraph with a preampliphier (Grass Model 7PIF). ,
(§4) The spontaneously beating right atria was stretched to a resting tension high enough to measure the contractions and to trigger a tachograph for registration of the frequency. The papillary muscle was stretched to the length at which maximal tension was developed and was driven at a frequency of 1HZ by a current 20 per cent above threshold and with a duration of 5 msec.
(§5) After 60 min. equilibration, dose response curves to cumulative concentrations of isoprenaline were constructed for chronotropic effect, i.e. increase in frequency (atria) and positive inotropic effect, i.e. increase in contractility (papillary muscle). After wash-out similar curves were constructed for the compounds employed according to the invention. The positive inotropic agent dopamine was included for comparison.
(§6) In order to establish the maximal chronotropic and inotropic responses of the preparations, isoprenaline was added immediately after the maximal concentrations of the compounds. The maximal effects of the compounds compared with the maximal effect of isoprenaline are expressed as intrinsic activity (ISA).

A further test has as its system rabbit right atria. Kind of test: Chronotropic effect (heart frequency) in isolated spontaneously beating right atria. The test is classed as cell-based. As to conditions: Oryctolagus cuniculus; for EC50: iv, isolated right atria, rabbits pretreated with reserpine (5 mg/kg i.v.), Krebs-buffer pH 7.4, 32°C, read-out: HR EC50; for Emax: maximal effect compared with maximal effect of isoprenaline (intrinsic activity), rabbits pretreated with reserpine, read-out: HR ISA. As to the method: as §1, §2, §3, §4, §5, §6

As to `NCCc1ccc(O)c(O)c1` [Dopamine], the values for the EC50 (in test [1]; in the test on rabbit right atria) were 36 µM and 38 µM, respectively. The Emax in test [1] is 77%; in the test with rabbit right atria, 97%.

For the compound `CCCN1CCCCC(c2cccc(O)c2)C1` (stereo not shown) [Example 1, 3-(3-hydroxyphenyl)N-n-propylperhydroazepine], in test [1], the EC50 was found to be 11 µM and the Emax was 37%. Moreover, the “EC50 for contractility relative to the EC50 for dopamine” value in test [1] (fraction of the dopamine EC50) is on record as “about one third”. In the test on rabbit right atria, the EC50 worked out at 0.35 µM and the Emax stood at 31%.

Consider `CC(C)NCC(O)c1ccc(O)c(O)c1` (stereo not shown) [Isoprenaline], for which the EC50 in test [1] is 0.01 µM; with rabbit right atria it was 0.003 µM. The Emax (in test [1]; in the test on rabbit right atria) was 100% in each case.
